Measurements reported in PubChem BioAssay (NCI).
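Cells were grown in 96-well plates and exposed to each compound for 48 hours at five concentrations; endpoints were interpolated linearly between bracketing concentrations, or set to the highest concentration if not reached. Here, GI50 denotes the concentration required for 50% inhibition of growth. TGI marks complete inhibition of growth.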

Legend:
Assay in all cases: NCI tumour cell line growth inhibition, 48 h; in the data active means GI50 below about 0.43 µM; inactive means the rest
UACC-62 melanoma = test system: UACC-62 melanoma
SNB-19 CNS = test system: SNB-19 CNS
KM12 colon = test system: KM12 colon
SK-MEL-2 melanoma = test system: SK-MEL-2 melanoma
NCI-H23 lung = test system: NCI-H23 lung
NCI/ADR-RES ovarian = test system: NCI/ADR-RES ovarian
TK-10 renal = test system: TK-10 renal
OVCAR-8 ovarian = test system: OVCAR-8 ovarian
SNB-75 CNS = test system: SNB-75 CNS
CCRF-CEM leukemia = test system: CCRF-CEM leukemia
DU-145 prostate = test system: DU-145 prostate
HOP-62 NSCLC = test system: HOP-62 NSCLC
OVCAR-5 ovarian = test system: OVCAR-5 ovarian
HT29 colon = test system: HT29 colon
PC-3 prostate = test system: PC-3 prostate
SF-295 CNS = test system: SF-295 CNS
OVCAR-4 ovarian = test system: OVCAR-4 ovarian
COLO 205 colon = test system: COLO 205 colon
A549 NSCLC = test system: A549 NSCLC
SF-268 CNS = test system: SF-268 CNS
MCF7 breast = test system: MCF7 breast
A498 renal = test system: A498 renal
HL-60(TB) leukemia = test system: HL-60(TB) leukemia
SF-539 CNS = test system: SF-539 CNS
HCC-2998 colon = test system: HCC-2998 colon
SK-OV-3 ovarian = test system: SK-OV-3 ovarian
MDA-MB-435 = test system: MDA-MB-435
U251 CNS = test system: U251 CNS
NCI-H460 lung = test system: NCI-H460 lung
SW-620 colon = test system: SW-620 colon
T-47D breast = test system: T-47D breast
HS 578T breast = test system: HS 578T breast
MALME-3M melanoma = test system: MALME-3M melanoma
786-0 renal = test system: 786-0 renal
K-562 leukemia = test system: K-562 leukemia
IGROV1 ovarian = test system: IGROV1 ovarian
MDA-MB-231 breast = test system: MDA-MB-231 breast
HOP-92 NSCLC = test system: HOP-92 NSCLC
NCI-H226 lung = test system: NCI-H226 lung
LOX IMVI melanoma = test system: LOX IMVI melanoma
SK-MEL-28 melanoma = test system: SK-MEL-28 melanoma
NCI-H522 lung = test system: NCI-H522 lung
BT-549 breast = test system: BT-549 breast
UO-31 renal = test system: UO-31 renal
CAKI-1 renal = test system: CAKI-1 renal
EKVX NSCLC = test system: EKVX NSCLC
M14 melanoma = test system: M14 melanoma
UACC-257 melanoma = test system: UACC-257 melanoma
MOLT-4 leukemia = test system: MOLT-4 leukemia
SR leukemia = test system: SR leukemia
SN12C renal = test system: SN12C renal
HCT-116 colon = test system: HCT-116 colon
HCT-15 colon = test system: HCT-15 colon
SK-MEL-5 melanoma = test system: SK-MEL-5 melanoma
OVCAR-3 ovarian = test system: OVCAR-3 ovarian
ACHN renal = test system: ACHN renal
RPMI-8226 leukemia = test system: RPMI-8226 leukemia

CCCn1c(C)nc2c1C(=O)c1ccccc1C2=O
70.8 µM: TGI (EKVX NSCLC)
42.4 µM: TGI (CAKI-1 renal)
49 µM: TGI (UACC-257 melanoma)
inactive: GI50 (UACC-62 melanoma) 22.1 µM | GI50 (SNB-19 CNS) 53.3 µM | GI50 (KM12 colon) 32.2 µM | GI50 (SK-MEL-2 melanoma) 59.4 µM | GI50 (NCI-H23 lung) 26.7 µM | GI50 (NCI/ADR-RES ovarian) 22.9 µM | GI50 (TK-10 renal) 65.2 µM | GI50 (OVCAR-8 ovarian) 31.8 µM | GI50 (SNB-75 CNS) 55.4 µM | GI50 (CCRF-CEM leukemia) 15.6 µM | GI50 (DU-145 prostate) 23.5 µM | GI50 (HOP-62 NSCLC) 41.3 µM | GI50 (OVCAR-5 ovarian) > 100 µM | GI50 (HT29 colon) 25.8 µM | GI50 (PC-3 prostate) 11 µM | GI50 (SF-295 CNS) 13 µM | GI50 (OVCAR-4 ovarian) 25 µM | GI50 (COLO 205 colon) 37.6 µM | GI50 (A549 NSCLC) 28.5 µM | GI50 (SF-268 CNS) 20.8 µM | GI50 (MCF7 breast) 30.9 µM | GI50 (A498 renal) 34.6 µM | GI50 (HL-60(TB) leukemia) 9.61 µM | GI50 (SF-539 CNS) 27.1 µM | GI50 (HCC-2998 colon) 50.2 µM | GI50 (SK-OV-3 ovarian) 86.2 µM | GI50 (MDA-MB-435) 17.2 µM | GI50 (U251 CNS) 22.4 µM | GI50 (NCI-H460 lung) 20.4 µM | GI50 (SW-620 colon) 33.5 µM | GI50 (T-47D breast) 35.1 µM | GI50 (HS 578T breast) 17.8 µM | GI50 (MALME-3M melanoma) 2.71 µM | GI50 (786-0 renal) 56.8 µM | GI50 (K-562 leukemia) 9.87 µM | GI50 (IGROV1 ovarian) 14.5 µM | GI50 (MDA-MB-231 breast) 34.1 µM | GI50 (HOP-92 NSCLC) > 100 µM | GI50 (NCI-H226 lung) 57.3 µM | GI50 (LOX IMVI melanoma) 22.9 µM | GI50 (SK-MEL-28 melanoma) > 100 µM | GI50 (NCI-H522 lung) 18.7 µM | GI50 (BT-549 breast) 31.4 µM | GI50 (UO-31 renal) 9.06 µM | GI50 (CAKI-1 renal) 12.2 µM | GI50 (EKVX NSCLC) 18.9 µM | GI50 (M14 melanoma) 40 µM | GI50 (UACC-257 melanoma) 16.5 µM | GI50 (MOLT-4 leukemia) 19 µM | GI50 (SR leukemia) 15.1 µM | GI50 (SN12C renal) 25.5 µM | GI50 (HCT-116 colon) 23.7 µM | GI50 (HCT-15 colon) 14.2 µM | GI50 (SK-MEL-5 melanoma) 13.4 µM | GI50 (OVCAR-3 ovarian) 11.6 µM | GI50 (ACHN renal) 37.7 µM | GI50 (RPMI-8226 leukemia) 17.2 µM
9.35 µM: TGI (MALME-3M melanoma)
45.8 µM: TGI (HL-60(TB) leukemia)
41.6 µM: TGI (SF-295 CNS)
75.1 µM: TGI (NCI-H522 lung)
57.3 µM: TGI (NCI-H460 lung)
> 100 µM: TGI (SNB-19 CNS) | TGI (KM12 colon) | TGI (SK-MEL-2 melanoma) | TGI (NCI-H23 lung) | TGI (NCI/ADR-RES ovarian) | TGI (TK-10 renal) | TGI (OVCAR-8 ovarian) | TGI (SNB-75 CNS) | TGI (CCRF-CEM leukemia) | TGI (DU-145 prostate) | TGI (HOP-62 NSCLC) | TGI (OVCAR-5 ovarian) | TGI (PC-3 prostate) | TGI (OVCAR-4 ovarian) | TGI (COLO 205 colon) | TGI (A549 NSCLC) | TGI (SF-268 CNS) | TGI (MCF7 breast) | TGI (A498 renal) | TGI (SF-539 CNS) | TGI (HCC-2998 colon) | TGI (SK-OV-3 ovarian) | TGI (U251 CNS) | TGI (SW-620 colon) | TGI (T-47D breast) | TGI (HS 578T breast) | TGI (786-0 renal) | TGI (K-562 leukemia) | TGI (MDA-MB-231 breast) | TGI (HOP-92 NSCLC) | TGI (NCI-H226 lung) | TGI (LOX IMVI melanoma) | TGI (SK-MEL-28 melanoma) | TGI (BT-549 breast) | TGI (M14 melanoma) | TGI (MOLT-4 leukemia) | TGI (SN12C renal) | TGI (HCT-15 colon) | TGI (ACHN renal) | TGI (RPMI-8226 leukemia)
79.4 µM: TGI (SR leukemia)
67.7 µM: TGI (UACC-62 melanoma)
39.2 µM: TGI (OVCAR-3 ovarian)
42.1 µM: TGI (IGROV1 ovarian)
65.9 µM: TGI (HCT-116 colon)
32.9 µM: TGI (MDA-MB-435)
60.8 µM: TGI (UO-31 renal)
27.2 µM: TGI (SK-MEL-5 melanoma)
71.6 µM: TGI (HT29 colon)
